The values below come from paper PMC2630805, “Anticancer Alkaloid Lamellarins Inhibit Protein Kinases” (Marine Drugs, 2008).

Where two headings read alike, the source gives them in different places.

The test system of one experiment is HeLa cells. Also noted: method as in PMID 11975488. To be noted: provided for comparison, ref [18]; cited from earlier work.
Experiment [1] relates to human neuroblastoma SH-SY5Y cells. The experiment in a line: SH-SY5Y cell survival, MTS reduction assay. It is filed as cell-based. To be noted: MTS assay, dose-response after 24 h and 48 h exposure, cell '− (x)' = no activity, x = highest concentration tested, read-out: IC50 SH-SY5Y cell survival. On the procedure: We next tested the effects of each lamellarin, at an initial 10 μM concentration, on the survival of the neuroblastoma SH-SY5Y cell line after 48 h exposure (Table 2). Cell survival was estimated by the MTS reduction assay.
SH-SY5Y human neuroblastoma cells were grown in DMEM supplemented with 2mM L-glutamine (Invitrogen, Cergy Pontoise, France), plus antibiotics (penicillin-streptomycin) and a 10% volume of fetal calf serum (FCS) (Invitrogen). Cell viability was determined by means of the MTS (3- (4,5-dimethylthiazol-2-yl)-5- (3-carboxymethoxyphenyl)-2- (4-sulfophenyl)-2H -tetrazolium) reduction method as previously described. Cell death was (also) assayed by LDH release. Lactate dehydrogenase is a stable cytosolic enzyme that is released upon cell lysis. SH-SY5Y cells were also subjected to caspase activity assays. These are based on cleavage of a synthetic caspase substrate DEVD (MP Biomedicals, 199423), a subtrate of active caspase 3/6/7. The assay was carried out according to manufacturer’s instructions.
On the technique in general: Tetrazolium assays rely on reduction of a dye to a coloured formazan, in cell work by metabolically active cells.

Another experiment deals with PIM 1 (Homo sapiens, UniProt P11309). The experiment in a line: PIM1 kinase assay (histone H1). It is filed as biochemical. The following applies: 15 μM ATP; cell '− (x)' = no inhibitory activity detected, x = highest concentration tested; read-out: IC50 PIM 1.
Sequence of PIM 1 (P11309 whole entry, species assumed): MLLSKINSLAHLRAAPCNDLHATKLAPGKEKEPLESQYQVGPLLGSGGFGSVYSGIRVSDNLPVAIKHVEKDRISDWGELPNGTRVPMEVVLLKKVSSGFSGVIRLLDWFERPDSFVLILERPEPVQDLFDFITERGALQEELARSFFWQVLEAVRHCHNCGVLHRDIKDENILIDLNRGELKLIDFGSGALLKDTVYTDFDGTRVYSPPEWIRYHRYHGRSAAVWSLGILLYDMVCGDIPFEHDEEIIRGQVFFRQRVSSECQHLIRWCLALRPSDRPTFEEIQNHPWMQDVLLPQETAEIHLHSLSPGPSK
In another experiment the target is CK1. Put plainly: CK1 kinase assay (CKS peptide). The experiment is classed as biochemical, porcine. On the procedure:
CK1 was purified from porcine brain by affinity chromatography on immobilized axin fragment. The mixture of native CK1 isoforms (essentially CK1δ and CK1ɛ) was assayed in three-fold diluted buffer C, using 25 μM CKS peptide, a CK1 selective substrate (RRKHAAIGpSAYSITA, synthesized by Millegen (Labège, France). Assays were performed for 30 min. at 30°C, as described for GSK-3.

The next experiment concerns the target CDK1/cyclin B. The experiment in a line: CDK1/cyclin B kinase assay (histone H1, P81 phosphocellulose). It is filed as biochemical, starfish (Marthasterias glacialis). The following applies: 15 μM ATP; cell '− (x)' = no inhibitory activity detected, x = highest concentration tested. As for the experimental part:
ATP (3,000 Ci/mmol; 1 mCi/ml) in a final volume of 30 μl. […] The wet filters were counted in the presence of 1 ml ACS (Amersham) scintillation fluid.

The next experiment has as its target CDK5/p25 (Homo sapiens, UniProt Q00535). Put plainly: CDK5/p25 kinase assay (histone H1).
The next experiment has as its target GSK-3α/ß. Put plainly: GSK-3α/β kinase assay (GS-1 substrate). The experiment is classed as biochemical, porcine. The following applies: 15 μM ATP; cell '− (x)' = no inhibitory activity detected, x = highest concentration tested. The text has this: GSK-3 α/β was purified from porcine brain by affinity chromatography on immobilized axin [39].
The next experiment deals with DYRK1A (Rattus norvegicus, UniProt Q63470). Put plainly: DYRK1A kinase assay (myelin basic protein).
[2] abbreviates: 15 μM ATP, cell '− (x)' = no inhibitory activity detected, x = highest concentration tested.

Sequence of CDK5/p25 (Q00535 whole entry): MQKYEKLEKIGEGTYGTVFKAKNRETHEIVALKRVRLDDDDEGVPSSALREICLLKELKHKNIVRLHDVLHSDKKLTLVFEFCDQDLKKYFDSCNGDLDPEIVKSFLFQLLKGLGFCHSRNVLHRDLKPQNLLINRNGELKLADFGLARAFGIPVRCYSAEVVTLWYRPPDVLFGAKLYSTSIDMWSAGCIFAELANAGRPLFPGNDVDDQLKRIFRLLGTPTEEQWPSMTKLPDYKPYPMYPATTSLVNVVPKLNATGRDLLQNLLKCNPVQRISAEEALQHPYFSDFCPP
Sequence of CDK5/p25 (Q15078 99-307 partner limits assumed): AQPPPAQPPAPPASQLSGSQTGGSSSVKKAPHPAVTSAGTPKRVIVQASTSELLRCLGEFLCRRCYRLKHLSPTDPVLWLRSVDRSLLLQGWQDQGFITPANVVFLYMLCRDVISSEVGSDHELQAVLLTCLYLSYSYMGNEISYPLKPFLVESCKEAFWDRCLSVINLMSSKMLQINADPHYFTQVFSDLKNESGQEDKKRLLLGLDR
Description for CDK5/p25: (§1) Blank values were subtracted and activities calculated as pmoles of phosphate incorporated during a 30 min. incubation. The activities were expressed in % of the maximal activity, i.e. in the absence of inhibitors. Controls were performed with appropriate dilutions of dimethylsulfoxide. Unless otherwise stated, the P81 phosphocellulose assay was used.
Its activity was assayed with histone H1 in buffer C as described for CDK1/cyclin B.
Description for DYRK1A: as §1
DYRK1A was expressed as a GST fusion protein in E. coli (vector kindly provided by Dr. W. Becker, Institute for Pharmacology and Toxicology, Aachen, Germany) and affinity purified on glutathione-agarose. […] ATP in a final volume of 30 μl. After 30 min incubation at 30°C, 25 μl aliquots of supernatant were treated as described above.

Take `COc1cc(-c2c3c4cc(OC)c(O)cc4oc(=O)c3n3ccc4cc(O)c(OC)cc4c23)ccc1O` [Compound 1, lamellarin D]: the IC50 (as a rule, the concentration that inhibits the measured activity by half) was 0.011 µM in the experiment on HeLa cells; 0.019 µM in experiment [1]; 0.1 µM on PIM 1; 13 µM on CK1; 0.5 µM on CDK1/cyclin B; 0.55 µM at CDK5/p25. In addition, the concentration for half-maximal inhibition (IC50) is 0.3 µM at GSK-3α/ß and 0.45 µM at DYRK1A.

Turning to `COc1cc(-c2c3c4cc(OC)c(O)cc4oc(=O)c3n3ccc4cc(OC)c(OC)cc4c23)ccc1O` [Compound 2, lamellarin α], the IC50 is greater than 10 µM in experiment [1]; 0.59 µM on PIM 1; 7.9 µM on CK1 (setting [2]); 8 µM against CDK1/cyclin B; greater than 10 µM against CDK5/p25; 1.4 µM at GSK-3α/ß. The compound further returned an IC50 at DYRK1A of 5 µM.

Consider `COc1cc(-c2c3n(c4c(=O)oc5cc(O)c(OC)cc5c24)CCc2cc(O)c(OC)cc2-3)ccc1O` [Compound 3, di-H-lamellarin D], for which the half-maximal inhibitory concentration (IC50) in experiment [1] came to 0.41 µM; on PIM 1, 0.2 µM; against CK1 (setting [2]), 5.9 µM; on CDK1/cyclin B, 1.85 µM; against CDK5/p25 it was 0.11 µM; on GSK-3α/ß, 0.9 µM. The compound also yielded an IC50 against DYRK1A of 0.5 µM.

As for `O=c1oc2cc(O)c(O)cc2c2c(-c3ccc(O)c(O)c3)c3c4cc(O)c(O)cc4ccn3c12` [Compound 4, lamellarin H], the half-maximal inhibitory concentration (IC50) with HeLa cells is greater than 100 µM; in experiment [1] it was 0.45 µM; on PIM 1, greater than 10 µM; on CK1 (setting [2]), 5.3 µM; at CDK1/cyclin B, greater than 10 µM; at CDK5/p25 it was greater than 10 µM. Besides, the 50% inhibitory concentration (IC50) on GSK-3α/ß is 9.5 µM; at DYRK1A, greater than 10 µM.

Take `O=c1oc2cc(O)c(O)cc2c2c(-c3ccc(O)c(O)c3)c3n(c12)CCc1cc(O)c(O)cc1-3` [Compound 5, di-H-lamellarin H]: the IC50 in experiment [1] was 2.55 µM; at PIM 1, greater than 10 µM; against CK1 (setting [2]), 5.2 µM; against CDK1/cyclin B, greater than 10 µM; against CDK5/p25, greater than 10 µM; at GSK-3α/ß it was 0.67 µM. Besides, the IC50 against DYRK1A is greater than 10 µM.

As to `COc1ccc(-c2c3n(c4c(=O)oc5cc(O)c(OC)cc5c24)CCc2cc(O)c(OC)cc2-3)cc1O` [Compound 7, lamellarin L], the half-inhibitory concentration (IC50) in experiment [1] was 0.7 µM; at PIM 1, 0.25 µM; on CK1 (setting [2]), greater than 10 µM; at CDK1/cyclin B, 0.38 µM; at CDK5/p25 it was 0.1 µM; against GSK-3α/ß it was 0.041 µM. On DYRK1A, the concentration for half-maximal inhibition (IC50) worked out at 0.14 µM.

For the compound `COc1cc(-c2c3c4ccc(O)cc4oc(=O)c3n3ccc4cc(O)c(OC)cc4c23)ccc1O` [Compound 9, lamellarin 3], the IC50 in the experiment on HeLa cells is 0.04 µM; in experiment [1] it was 0.056 µM; on PIM 1, 0.15 µM; against CK1 (setting [2]), 0.41 µM; on CDK1/cyclin B, 0.53 µM; on CDK5/p25, 0.6 µM. The IC50 came out at 0.58 µM at GSK-3α/ß and 0.06 µM against DYRK1A.

With `COc1ccc2oc(=O)c3c(c(-c4ccc(O)c(OC)c4)c4c5cc(OC)c(O)cc5ccn43)c2c1` [Compound 10, lamellarin 4], the IC50 in the experiment with HeLa cells is 0.85 µM; in experiment [1] it was 0.79 µM; at PIM 1 it was 0.05 µM; on CK1 (setting [2]) it was 1.3 µM; on CDK1/cyclin B, 2 µM; at CDK5/p25 it was 0.6 µM. The IC50 against GSK-3α/ß is 0.05 µM; against DYRK1A, 0.08 µM.

Turning to `COc1cc2c(cc1O)oc(=O)c1c2c(-c2ccc(OC)c(OC)c2)c2c3cc(OC)c(OC)cc3ccn21` [Compound 11, lamellarin 5], the half-inhibitory concentration (IC50) with HeLa cells was 2.5 µM; in experiment [1], 8 µM; at PIM 1, 2 µM; on CK1 (setting [2]), greater than 10 µM; on CDK1/cyclin B, greater than 10 µM; at CDK5/p25, greater than 10 µM. Also, the concentration for half-maximal inhibition (IC50) against GSK-3α/ß and against DYRK1A was greater than 10 µM each time.

`COc1cc2c(cc1O)oc(=O)c1c2c(-c2ccc(O)cc2)c2c3cc(OC)c(O)cc3ccn21` [Compound 12, lamellarin 6]: the IC50 in the experiment on HeLa cells is 0.04 µM; in experiment [1], 0.11 µM; at PIM 1 it was 0.33 µM; against CK1 (setting [2]) it was 0.8 µM; at CDK1/cyclin B it was 0.1 µM; on CDK5/p25, 0.03 µM. Besides, the IC50 on GSK-3α/ß was 0.13 µM; against DYRK1A, 0.09 µM.

As for `COc1cccc(-c2c3c4cc(OC)c(O)cc4oc(=O)c3n3ccc4cc(O)c(OC)cc4c23)c1` [Compound 13, lamellarin 7], the IC50 with HeLa cells is 0.07 µM; in experiment [1], 0.14 µM; at PIM 1 it was greater than 10 µM; on CK1 (setting [2]), greater than 10 µM; at CDK1/cyclin B, 4.3 µM; against CDK5/p25, 2.1 µM. Moreover, the IC50 at GSK-3α/ß was 2.1 µM; against DYRK1A, greater than 10 µM.

Turning to `COc1cc(-c2c3c4ccccc4oc(=O)c3n3ccc4cc(O)c(OC)cc4c23)ccc1O` [Compound 14, lamellarin 8], the concentration for half-maximal inhibition (IC50) in the experiment on HeLa cells was 4 µM; in experiment [1] it was 2.65 µM; at PIM 1, 0.7 µM; against CK1 (setting [2]), greater than 10 µM; against CDK1/cyclin B, 5 µM; on CDK5/p25 it was 0.9 µM. In addition, the values for the half-inhibitory concentration (IC50) at GSK-3α/ß and against DYRK1A were 2.2 µM and 1 µM, respectively.

Take `O=c1oc2ccccc2c2c(-c3ccc(O)c(O)c3)c3c4cc(O)c(O)cc4ccn3c12` [Compound 15, lamellarin 9]: the IC50 in the experiment on HeLa cells is 1.1 µM; in experiment [1], greater than 10 µM; on PIM 1 it was greater than 10 µM; against CK1 (setting [2]), greater than 10 µM; against CDK1/cyclin B it was greater than 10 µM; against CDK5/p25, greater than 10 µM. Besides, the IC50 against GSK-3α/ß and on DYRK1A was greater than 10 µM each time.

Turning to `COc1ccc(-c2c3c4ccccc4oc(=O)c3n3ccc4cc(OC)c(OC)cc4c23)cc1OC` [Compound 16, lamellarin 11], the 50% inhibitory concentration (IC50) in the experiment on HeLa cells was 5.7 µM; in experiment [1] it was greater than 10 µM; at PIM 1 it was greater than 10 µM; against CK1 (setting [2]) it was greater than 10 µM; against CDK1/cyclin B, greater than 10 µM; on CDK5/p25, greater than 10 µM. The concentration for half-maximal inhibition (IC50) at GSK-3α/ß and against DYRK1A was greater than 10 µM each time.

For `COc1ccc(-c2c3c4cc5c(cc4oc(=O)c3n3ccc4cc(OC)c(OC)cc4c23)OCO5)cc1OC` [Compound 17, lamellarin 12], the half-inhibitory concentration (IC50) was greater than 100 µM in the experiment on HeLa cells; greater than 10 µM in experiment [1]; greater than 10 µM on PIM 1; greater than 10 µM against CK1 (setting [2]); greater than 10 µM at CDK1/cyclin B; greater than 10 µM against CDK5/p25. For the same compound, the half-maximal inhibitory concentration (IC50) at GSK-3α/ß and against DYRK1A was greater than 10 µM throughout.

On to `COc1cc(-c2c3n(c4c(=O)oc5cc(O)c(OC)cc5c24)CCc2c-3cc(OC)c(OC)c2O)ccc1O` [Compound 22, lamellarin K], for which the half-maximal inhibitory concentration (IC50) in experiment [1] is greater than 30 µM; at PIM 1 it was 0.6 µM; against CK1 (setting [2]), 6 µM; at CDK1/cyclin B, greater than 10 µM; on CDK5/p25, greater than 10 µM; at GSK-3α/ß, greater than 10 µM. This compound showed an IC50 at DYRK1A greater than 10 µM.
